Assay results published in PMC12463105, “NSP7 Molecular Degrader Attenuates Coronaviral Infection Through the β‐TrCP1/FBXO5 Axis” (Advanced Science, 2025).
pIC50: −log10 of the molar value.

What was measured:
SARS-CoV-2 NSP7-HiBiT = settings: read-out: NSP7- HiBiT; reduction of NSP7-HiBiT signal; degrader
HCoV-OC43 = tested on: T1, HCoV-OC43; assay: microbe, parasite or virus in culture; design: HCoV-OC43 infection assay, reduction of viral infection; settings: Betacoronavirus 1, OC43, read-out: OC43
T1 construct: ATCC VR-1558

Compound | pIC50 (SARS-CoV-2 NSP7-HiBiT) | pIC50 (HCoV-OC43)
CCSc1nsc(NC(=O)NCCC(C)C)n1 [BC24893, 3-(ethylthio)-5-(3-isopentylureido)-1,2,4-thiadiazole] | 4.73 | 4.86
CCSc1nsc(NC(=O)NC2CCCCC2)n1 [BC24894, 5-(3-cyclohexylureido)-3-(ethylthio)-1,2,4-thiadiazole] | 4.63 | 4.76
CCSc1nsc(NC(=O)Nc2cccc(F)c2)n1 [BC24895, 3-(ethylthio)-5-[3-(m-fluorophenyl)ureido]-1,2,4-thiadiazole] | 5.05 | 5.60
CCSc1nsc(NC(=O)NCC(C)C)n1 [BC24896, 3-(ethylthio)-5-(3-isobutylureido)-1,2,4-thiadiazole] | 4.53 | 4.52
CCOC(=O)CCNC(=O)Nc1nc(SCC)ns1 [BC24897, ethyl 3-{3-[3-(ethylthio)-1,2,4-thiadiazol-5-yl]ureido}propionate] | < 4.00 | < 4.00
CCSc1nsc(NC(=O)NCCOC)n1 [BC24899, 3-(ethylthio)-5-[3-(2-methoxyethyl)ureido]-1,2,4-thiadiazole] | < 4.00 | < 4.00
CCSc1nsc(NC(=O)NC(C)(C)C)n1 [BC24900, 5-(3-tert-butylureido)-3-(ethylthio)-1,2,4-thiadiazole] | < 4.00 | < 4.00
CCOC(=O)[C@H](C)NC(=O)Nc1nc(SCC)ns1 [BC24902, ethyl (S)-2-{3-[3-(ethylthio)-1,2,4-thiadiazol-5-yl]ureido}propionate] | < 4.00 | < 4.00
CCSc1nsc(NC(=O)NCc2cccc(F)c2)n1 [BC24904, 3-(ethylthio)-5-{3-[(m-fluorophenyl)methyl]ureido}-1,2,4-thiadiazole] | < 4.00 | < 4.00
CCSc1nsc(NC(=O)Nc2c(C)cccc2C)n1 [BC24905, 3-(ethylthio)-5-[3-(2,6-xylyl)ureido]-1,2,4-thiadiazole] | 4.66 | 4.80
CCSc1nsc(NC(=O)NCc2ccc(OC)cc2)n1 [BC24906, 3-(ethylthio)-5-{3-[(p-methoxyphenyl)methyl]ureido}-1,2,4-thiadiazole] | < 4.00 | < 4.00
CCSc1nsc(NC(=O)Nc2cccc(F)c2C)n1 [BC24907, 3-(ethylthio)-5-[3-(3-fluoro-2-tolyl)ureido]-1,2,4-thiadiazole] | 5.01 | 5.47
CCCCc1ccc(NC(=O)Nc2nc(SCC)ns2)cc1 [BC24908, 5-[3-(p-butylphenyl)ureido]-3-(ethylthio)-1,2,4-thiadiazole] | 4.52 | 4.74
CCSc1nsc(NC(=O)Nc2cc(F)c(F)c(F)c2)n1 [BC24910, 3-(ethylthio)-5-[3-(3,4,5-trifluorophenyl)ureido]-1,2,4-thiadiazole] | 5.65 | 6.38
CCSc1nsc(NC(=O)Nc2cccc(Cl)c2F)n1 [BC24911, 5-[3-(3-chloro-2-fluorophenyl)ureido]-3-(ethylthio)-1,2,4-thiadiazole] | 5.01 | 5.09
CCSc1nsc(NC(=O)Nc2ccc(C(F)(F)F)cc2)n1 [BC24912, 3-(ethylthio)-5-{3-[p-(trifluoromethyl)phenyl]ureido}-1,2,4-thiadiazole] | 5.75 | 6.17
CCOC(=O)C1CCC(CNC(=O)Nc2nc(SCC)ns2)CC1 (centres unmarked) [BC24913, ethyl 4-({3-[3-(ethylthio)-1,2,4-thiadiazol-5-yl]ureido}methyl)cyclohexanecarboxylate] | < 4.00 | 4.76
CCSc1nsc(NC(=O)Nc2ccc3c(c2)CCC3)n1 [BC24915, 3-(ethylthio)-5-[3-(5-indanyl)ureido]-1,2,4-thiadiazole] | 4.47 | 4.76
CCSc1nsc(NC(=O)Nc2ccc(OC)cc2C)n1 [BC24916, 3-(ethylthio)-5-[3-(4-methoxy-2-tolyl)ureido]-1,2,4-thiadiazole] | < 4.00 | 4.76
